In general, IC50 refers to the concentration that gives 50% inhibition. As usually defined, the inhibition is the relative decrease from the control value, in per cent.

Assay [1] concerns the target T1, PKD2 (Homo sapiens, UniProt Q9BZL6).
T1 construct: made in house; host or cells: HEK293T cells, transient transfection with pDEST27-PRKD2, stimulated with 500 nM PDB before lysis
T1 sequence (Q9BZL6 1-878): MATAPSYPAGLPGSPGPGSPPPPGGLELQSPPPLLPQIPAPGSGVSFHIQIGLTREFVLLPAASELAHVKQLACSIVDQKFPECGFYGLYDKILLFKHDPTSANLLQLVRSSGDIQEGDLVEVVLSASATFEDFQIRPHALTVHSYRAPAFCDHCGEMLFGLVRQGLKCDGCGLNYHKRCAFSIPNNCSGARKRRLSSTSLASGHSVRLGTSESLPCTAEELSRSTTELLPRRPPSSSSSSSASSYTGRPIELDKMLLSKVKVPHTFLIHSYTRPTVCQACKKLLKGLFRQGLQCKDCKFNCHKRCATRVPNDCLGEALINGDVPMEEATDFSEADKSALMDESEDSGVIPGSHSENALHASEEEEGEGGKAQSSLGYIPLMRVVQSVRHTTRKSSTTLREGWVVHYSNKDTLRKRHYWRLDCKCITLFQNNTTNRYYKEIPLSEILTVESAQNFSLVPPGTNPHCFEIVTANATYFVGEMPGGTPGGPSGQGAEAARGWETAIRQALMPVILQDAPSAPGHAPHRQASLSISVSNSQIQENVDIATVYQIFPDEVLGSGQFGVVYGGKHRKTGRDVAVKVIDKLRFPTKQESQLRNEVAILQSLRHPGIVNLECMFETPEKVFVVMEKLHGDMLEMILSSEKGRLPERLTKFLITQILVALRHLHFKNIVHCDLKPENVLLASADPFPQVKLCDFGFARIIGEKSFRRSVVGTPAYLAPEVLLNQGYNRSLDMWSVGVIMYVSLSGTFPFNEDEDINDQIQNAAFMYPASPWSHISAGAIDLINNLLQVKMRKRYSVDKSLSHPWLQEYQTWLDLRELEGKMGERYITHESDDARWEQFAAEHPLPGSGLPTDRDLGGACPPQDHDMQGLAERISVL
Briefly: PKD2 screening assay (in vitro radiometric kinase assay). It counts as biochemical. As to conditions: for remaining activity at 1 µM: 10 min. On the procedure: All 35 described analogues were characterized in vitro via an initial screening at 1 μM against PKD2. […]
scanning of a coomassie stained SDS-polyacrylamide gel.
An in vitro radiometric assay was used to determine the inhibition of PKD in presence of various compounds at a […]
determinations. Reactions were carried out in 40µl of a mixture containing 50mM Tris-HCl pH 7.4, 10mM MgCl2, 50ng of PDB stimulated GST-PKD2, 4µg/ml Syntide-2 (Sigma Aldrich, St. Louis, USA), 25µM ATP and 2µCi [γ-32P]ATP (Perkin-Elmer, Massachusetts, USA). After 10’ the reaction was stopped by spotting 30µl of the reaction on whatmann P81 filter paper. The filter papers were washed 3 times in 0.5% phosphoric acid, followed by one wash in 100% acetone. Subsequently the papers were air-dried and counted using the Tri-Carb 2810 TR scintillation counter (Perkin-Elmer). Percentage of PKD2 inhibition was determined relative to a condition where no inhibitor was added (0,1% dimethylsulfoxide (DMSO)). Graphs were plotted and IC50 values were determined using the GraphPad software package (Prism). […]

Assay [2] has as its target T1, PKD2. Briefly: Cellular screening assay using phospho-cortactin (Ser-298) as a readout. It counts as cell-based. As to conditions: HEK293T cells co-transfected with FLAG-PRKD2 and myc-CTTN; for cellular activity against PKD2 (in words): pSer-298 cortactin western blot; for inhibition at 40 µM: HEK-293T, 40 μM compound, 30 min pretreatment, 500 nM PDB 15 min, read-out: inhibition of PKD2 mediated cortactin Ser-298 phosphorylation. An excerpt: Therefore we used a cellular assay in which we were able to specifically follow PKD mediated phosphorylation of cortactin, a known PKD substrate, at Ser-298.[15] […] Cortactin phosphorylation at Ser-298 in our assay was PKD-specific, since co-transfection of PKD and cortactin was necessary to produce an adequate signal (data not shown). We selected four compounds for further validation in a cellular assay against PKD2 (Fig. 5).
Fig. 5 The effect of 1-NM-PP1 analogues on PKD mediated phosphorylation of cortactin at Ser-298. HEK293T cells co-transfected with FLAG-PRKD2 and myc-CTTN were pretreated with the indicated compounds for 30 min prior to stimulation with 500 nM Phorbol 12,13-dibutyrate (PDB) for 15 min. Phosphorylation of cortactin was followed via western blot using a home-made pSer-298 antibody and subsequently reprobed for total cortactin (anti-c-Myc; 9E10) and PKD (anti-FLAG M2). Quantification of pSer-298/c-Myc signals of three independent experiments is shown in the graph below. […]
Cellular screening assay using phospho-cortactin as a readout
HEK293T cells were seeded in a 12-well plate at 150.000 cells/well. The next day, cells were transfected with 0.5µg of pcDNA3-Myc-CTTN and 0.5µg of pdcDNA-FLAG-PRKD2. Forty-eight hours after transfection, cells were incubated with compound at the indicated concentrations for 30 min, followed by stimulation with 500nM phorbol 12,13-dibutyrate (PDB) for 15 min. Subsequently, cells were lysed in 50mM Tris pH 7.4, 15mM EDTA, 150mM NaCl, 0.1% (v/v) NP-40 and 25% (v/v) glycerol. Protein quantitation was determined via a Bradford assay. Equal amounts of lysate (30µg) were loaded on a SDS-polyacrylamide gel and subjected to immunoblotting. Blots were probed with Cortactin pSer-298 antibody (home-made) and anti-tubulin antibody (Sigma, St. Louis, Missouri). Subsequently, blots were stripped and reprobed with anti-Myc 9E10 (Sigma, St.
Louis, Missouri) for cortactin and anti-FLAG M2 (Sigma, St. Louis, Missouri) for PKD2.

The test system of the next assay is PKD. Further details: method as in Wang group. To be noted: previously reported value; different assay setup and enzyme preparation; ref Wang group; cited from earlier work.
The mark [3] stands for this setting: ESI table, initial screening of all analogues at 1µM, read-out: % PKD2 activity remaining (1µM) (average ±SD).
The mark [4] stands for this setting: compound at 1 μM, PDB stimulated GST-PKD2, Syntide-2, 25µM ATP, relative to no inhibitor (DMSO), read-out: % PKD 2 activity remaining (1 μM) (Average ± SD).
[5] abbreviates: PDB stimulated GST-PKD2, Syntide-2, 25µM ATP, radiometric.

Read-outs that look alike come from different tables or passages of the source.

Consider `CC(C)(C)n1nc(-c2c[nH]c3ccccc23)c2c(N)ncnc21` [Compound 18, 1-tert-butyl-3-(1H-indol-3-yl)-1H-pyrazolo[3,4-d]pyrimidin-4-amine], for which the remaining activity at 1 µM at PKD2 [1] (setting [3]) and at PKD2 [1] (setting [4]) was 8 ± 0.8% each time. In addition, the half-inhibitory concentration (IC50) against PKD2 [1] (setting [5]) is 33 nM; against PKD2 [1] (in vitro potency as stated in the conclusions), ~33 nM. The “fold increase in potency compared to 1-NM-PP1” value on PKD2 [1] (PKD2 IC50 relative to 1-NM-PP1) came to 10 fold. Further, the “cellular activity against PKD2 (in words)” value (from here on “cellular activity”) at PKD2 [2] was “dose-dependent inhibition”. The inhibition at 40 µM on PKD2 [2] stood at 85%.

`CC(C)(C)n1nc(Cc2cccc3ccccc23)c2c(N)ncnc21` [Compound 1, 1-tert-butyl-3-(1-naphthylmethyl)-1H-pyrazolo[3,4-d]pyrimidin-4-amine, reference compound]: the remaining activity at 1 µM at PKD2 [1] (setting [3]) and on PKD2 [1] (setting [4]) was 23 ± 1.7% throughout. Besides, the figures for the concentration for half-maximal inhibition (IC50) on PKD2 [1] (setting [5]) and in the assay with PKD were 398 nM and 133 nM, respectively. Besides, the “cellular activity” value at PKD2 [2] is “dose-dependent inhibition”. Besides, on PKD2 [2], the inhibition at 40 µM was determined as 50%.

For `CC(C)(C)n1nc(-c2cc3ccccc3s2)c2c(N)ncnc21` [Compound 6l], the remaining activity at 1 µM at PKD2 [1] (setting [3]) and at PKD2 [1] (setting [4]) was 53 ± 7.1% in each case. In addition, on PKD2 [1] (setting [5]), half-maximal inhibition (IC50) was put at 2210 nM. Further, on PKD2 [2], the “cellular activity” value is given as “did not show cellular activity”.

For the compound `CCCCNc1nc(N)c2c(-c3cccc4ccccc34)nn(C(C)(C)C)c2n1` [Compound 13h, N6-butyl-1-tert-butyl-3-(1-naphthyl)-1H-pyrazolo[3,4-d]pyrimidine-4,6-diamine], the remaining activity at 1 µM at PKD2 [1] (setting [3]) and on PKD2 [1] (setting [4]) was 89 ± 6.2% throughout. Also, at PKD2 [1] (setting [5]), the half-inhibitory concentration (IC50) is 8170 nM. In addition, at PKD2 [2], the “cellular activity” value was “negligible cellular activity”.

Regarding `CC(C)(C)n1nc(Cc2ccccc2)c2c(N)ncnc21` [Compound 7a, 3-benzyl-1-tert-butyl-1H-pyrazolo[3,4-d]pyrimidin-4-amine], the remaining activity at 1 µM at PKD2 [1] (setting [3]) and on PKD2 [1] (setting [4]) was 35 ± 1.3% throughout. Also, at PKD2 [1] (setting [5]), the IC50 was 449 nM.

Consider `Cn1nc(CCCCc2ccccc2)c2c(N)ncnc21` [Compound 7l, 1-methyl-3-(4-phenylbutyl)-1H-pyrazolo[3,4-d]pyrimidin-4-amine], for which, on PKD2 [1] (setting [3]), the remaining activity at 1 µM was 98 ± 6.4%.

The record behind these values is paper PMC5567267, “Discovery of a potent protein kinase D inhibitor: insights in the binding mode of pyrazolo[3,4-d]pyrimidine analogues” (MedChemComm, 2017).
